Measurements taken from patent US20250099485A1, “COMPOSITIONS FOR PROMOTING HAIR GROWTH” (ESTETRA SRL, priority 2021, published 2025).

Key:
[1] = Tissue distribution of radioactivity by quantitative whole body autoradiography, non-pigmented rats; assay type: in vivo, rat (female Sprague-Dawley); settings: female non-pigmented rats; for Concentration of radioactivity in tissue, Skin: Non-pigmented / Tissue: Blood ratio, Skin: Non-pigmented: single oral 15 mg/kg
Experimental: Times for analysis were: 0.5, 1, 2, 5, 8, 24 and 48 hours.
Distribution of radioactivity in tissues was determined and quantified using the Fuji FLA-5100 fluorescent image analyser and associated Tina and SeeScan software. Tissue concentrations of radioactivity were determined using calibrated autoradiographic microscales produced by GE Healthcare. A standard curve was produced using the microscales from which tissue concentrations of radioactivity were determined (nCi/g). These values were then converted into pg equivalents/g using the specific activity of the dose formulation.
Radioactivity concentrations are also reported as μg equivalents/g.

[2] = Tissue distribution of radioactivity by quantitative whole body autoradiography, partially pigmented rats; settings: female partially pigmented rats; for Concentration of radioactivity in tissue, Skin: Non-pigmented / Concentration of radioactivity in tissue, Skin: Pigmented / Tissue: Blood ratio, Skin: Non-pigmented / Tissue: Blood ratio, Skin: Pigmented / Total amount of radioactivity in tissue, Skin (non-pigmented) / Total amount of radioactivity in tissue, Skin (pigmented): single oral 15 mg/kg
Experimental: Tissue distribution was determined in female rats (partially pigmented and non-pigmented) using [^14C]-estetrol.
A group of six female Lister Hooded rats each received a single oral dose of [^14C]-estetrol. At each selected time (see below) one animal was killed (by overdose of CO2) followed by immediate snap freezing in hexane/solid CO2. The carcasses were retained for examination of the tissue distribution of radioactivity using the technique of quantitative whole body autoradiography (QWBA).
Times for analysis were: (0.5, 8, and 24 hours, 7, 14 and 35 days).
Frozen carcasses were subjected to whole-body autoradiography.
Where concentrations are reported, radioactivity was assumed to be associated with [^14C]-estetrol or any metabolic products derived from [^14C]-estetrol. The specific activities of the dosed test compounds were used for the calculation of concentrations in all cases. Recoveries of radioactivity are reported as percentage of administered radioactivity (% dose). Radioactivity concentrations are also reported as μg equivalents/g.

[3] = system: mouse lymphoma cell line L5178Y TK^+/−; assay: Generation of reactive oxygen species (ROS); assay type: cell-based; settings: up to 100 μM, 3 h exposure, vs vehicle control
Experimental: The objective of the study was to investigate the generation of reactive oxygen species (ROS) induced by the test item, estetrol (E4), in a mouse lymphoma cell line L5178Y TK^+/−.
L5178Y TK^+/− cells in logarithmic phase of growth were plated in black 96 well cell culture plates at 1×10^4 cells in 90 μL of cell culture media. Controls and test item in triplicate were applied to the cells as a 10× concentrate in 10 μL of a 10% ethanol solution in PBS (final concentration of ethanol on plate was 1%). Cells were incubated for 3 hours at 37° C., 5% CO2, and the generation of ROS was evaluated by fluorescence with a ROS reagent: the ROS reagent was freshly prepared by dissolving one ampoule of reagent (50 μg) in 70 μL DMSO and further diluting this with 2.1 mL of pre-warmed PBS. 10 μL of ROS reagent was added to each well and the plate were shaken for 30 seconds in the dark. The plates were incubated approximately at 37° C., 5% CO2 for 1 h 30 min and fluorescence was read on a plate scanner with excitation at 492 nm and emission at 520 nm.

[4] = system: Normal Human Dermal Fibroblasts (NHDFs); assay: Colonization of acellular area (IBIDI gap closure), fibroblasts; assay type: cell-based; settings: 10 ng/ml, both in presence and absence of MMC
Experimental: The study consists in an in vitro assay aiming to evaluate the properties of E4 and E2 at 4 concentrations each on keratinocytes and fibroblasts. In this assay, the measurement of the colonization of a standard acellular surface generated from a confluent monolayer of cells using a dedicated culture device (IBIDI chamber) is performed. The assay is performed in absence and in presence of a proliferation inhibitor to focus on cell proliferation and migration or on migration only, respectively.
Normal Human foreskin-derived Dermal Fibroblast (NHDFs, ATCC) cells were grown in phenol-free Dulbecco's Modified Eagle Medium (DMEM, ThermoFisher Scientific) supplemented with 10% of Foetal Bovine Serum (FBS, ThermoFisher Scientific), L-glutamine and antibiotics. The cells were maintained in a humidified incubator at 37° C. with a 5% CO2 atmosphere.
Cells were plated in 2-well silicone inserts with a defined cell free gap (IBIDI chambers; IBIDI GmbH, 80209) that was previously inserted on 12-well culture plates. This culture device allows to create a standardized 500 μm±100 μm cell free gap for monitoring cell colonization. 24 h after seeding, when the culture reached high confluency, cells in the insert were treated, or not, with mitomycin C (MMC) at 10 μg/ml during 2 h. After these 2 hours, the insert was removed, and cells were treated with E2 or E4 in presence or not of MMC for additional 2 h. Then, if appropriate, the culture medium was removed and cells were treated with E2 or E4 for 22 h, in absence of MMC.
For the assay, keratinocytes were plated in Epilife medium without HKGS and all the treatments were performed in this medium. Fibroblasts were plated in DMEM medium containing only 2.5% of FBS and the treatments were performed in absence of FBS.
E2 and E4 were applied at 4 concentrations each (10^−7M, 10^−8M, 10^−9M, 10^−10M). In parallel, cells were treated with a positive control (HKGS 1% for human keratinocytes and PDGF-BB at 10 ng/ml for human fibroblasts).
To monitor cell colonization and to evaluate the gap closure rate, pictures of the gap were taken after different times: at time 0 h, corresponding to the beginning of the treatment with E2 or E4 and to the removal of the culture insert, at time 6 h and at time 24 h (corresponding to the end of the treatments with E2 or E4). Pictures were taken with a microscope Zeiss (Axiover 25-10× objective) and with a camera Invenio2EIII (DeltaPix—Lux-Optic). The colonized areas were quantified from the pictures by the use of the WimAsis platform—WimScratch software. For each insert, 3 pictures were taken at each time. As each condition was performed in triplicates, it means a total of 9 pictures per condition and per time point of acquisition

[^14C]-estetrol
Concentration of radioactivity in tissue, Skin: Non-pigmented ([1]; 0.5 hours): 2.59 microgram equivalents/gram | Tissue: Blood ratio, Skin: Non-pigmented ([1]; 0.5 hours): 1.05 | Concentration of radioactivity in tissue, Skin: Non-pigmented ([1]; 1 hour): 0.771 microgram equivalents/gram | Tissue: Blood ratio, Skin: Non-pigmented ([1]; 1 hour): 0.99 | Concentration of radioactivity in tissue, Skin: Non-pigmented ([1]; 2 hours): 0.465 microgram equivalents/gram | Tissue: Blood ratio, Skin: Non-pigmented ([1]; 2 hours): 1.72 | Concentration of radioactivity in tissue, Skin: Non-pigmented ([1]; 5 hours): 0.189 microgram equivalents/gram | Tissue: Blood ratio, Skin: Non-pigmented ([1]; 5 hours): 1.66 | Concentration of radioactivity in tissue, Skin: Non-pigmented ([1]; 8 hours): 0.361 microgram equivalents/gram | Tissue: Blood ratio, Skin: Non-pigmented ([1]; 8 hours): 1.77 | Concentration of radioactivity in tissue, Skin: Non-pigmented ([1]; 24 hours): BLQ | Concentration of radioactivity in tissue, Skin: Non-pigmented ([1]; 48 hours): BLQ | Concentration of radioactivity in the liver (greatest concentration) ([1]; single oral dose, 0.5 hours): 12.5 μg equivalents/g | Concentration of radioactivity in tissue, Skin: Non-pigmented ([2]; 0.5 hours): 1.89 microgram equivalents/gram | Concentration of radioactivity in tissue, Skin: Pigmented ([2]; 0.5 hours): 2.85 microgram equivalents/gram | Tissue: Blood ratio, Skin: Non-pigmented ([2]; 0.5 hours): 0.71 | Tissue: Blood ratio, Skin: Pigmented ([2]; 0.5 hours): 1.07 | Total amount of radioactivity in tissue, Skin (non-pigmented) ([2]; 0.5 hours): 1.136 % dose administered/tissue | Total amount of radioactivity in tissue, Skin (pigmented) ([2]; 0.5 hours): 1.714 % dose administered/tissue | Concentration of radioactivity in tissue, Skin: Non-pigmented ([2]; 8 hours): 0.090 microgram equivalents/gram | Concentration of radioactivity in tissue, Skin: Pigmented ([2]; 8 hours): 0.163 microgram equivalents/gram | Tissue: Blood ratio, Skin: Non-pigmented ([2]; 8 hours): 0.66 | Tissue: Blood ratio, Skin: Pigmented ([2]; 8 hours): 1.03 | Total amount of radioactivity in tissue, Skin (non-pigmented) ([2]; 8 hours): 0.059 % dose administered/tissue | Total amount of radioactivity in tissue, Skin (pigmented) ([2]; 8 hours): 0.099 % dose administered/tissue | Concentration of radioactivity in tissue, Skin: Non-pigmented ([2]; 24 hours): BLQ | Concentration of radioactivity in tissue, Skin: Pigmented ([2]; 24 hours): 0.113 microgram equivalents/gram | Total amount of radioactivity in tissue, Skin (non-pigmented) ([2]; 24 hours): <0.041 % dose administered/tissue | Total amount of radioactivity in tissue, Skin (pigmented) ([2]; 24 hours): 0.061 % dose administered/tissue | Concentration of radioactivity in tissue, Skin: Non-pigmented ([2]; 7 days): BLQ | Concentration of radioactivity in tissue, Skin: Pigmented ([2]; 7 days): BLQ | Total amount of radioactivity in tissue, Skin (non-pigmented) ([2]; 7 days): <0.043 % dose administered/tissue | Total amount of radioactivity in tissue, Skin (pigmented) ([2]; 7 days): <0.043 % dose administered/tissue | Concentration of radioactivity in tissue, Skin: Non-pigmented ([2]; 14 days): BLQ | Concentration of radioactivity in tissue, Skin: Pigmented ([2]; 14 days): BLQ | Total amount of radioactivity in tissue, Skin (non-pigmented) ([2]; 14 days): <0.038 % dose administered/tissue | Total amount of radioactivity in tissue, Skin (pigmented) ([2]; 14 days): <0.038 % dose administered/tissue | Concentration of radioactivity in tissue, Skin: Non-pigmented ([2]; 35 days): BLQ | Concentration of radioactivity in tissue, Skin: Pigmented ([2]; 35 days): BLQ | Total amount of radioactivity in tissue, Skin (non-pigmented) ([2]; 35 days): <0.041 % dose administered/tissue | Total amount of radioactivity in tissue, Skin (pigmented) ([2]; 35 days): <0.041 % dose administered/tissue | Concentration of radioactivity in the liver (greatest concentration) ([2]; single oral dose, 0.5 hours): 13.7 μg equivalents/g | Concentration of radioactivity in the liver ([2]; single oral dose, 7 days after dosing): 0.410 μg equivalents/g | Concentration of radioactivity, majority of tissues (BLQ) ([2]; single oral dose, by 24 hours): < 0.076 μg equivalents/g

OO [hydrogen peroxide, reference compound]
levels of ROS, positive control [3]: tendency to increase the levels of ROS

B1: PDGF-BB: positive control at 10 ng/ml for human fibroblasts (protein, UniProt P01127 82-190, looked up)
Platelet-derived growth …: SLGSLTIAEPAMIAECKTRTEVFEISRRLIDRTNANFLVWPPCVEVQRCSGCCNNRNVQCRPTQVQLRPVQVRKIEIVRKKPIFKKATVTLEDHLACKCETVAAARPVT
NHDF colonized area, positive reference [4]: significantly increases the colonized area
